Results from patent EP3041456B1, “COMPOSITION AND METHOD FOR INDUCING OR STIMULATING GROWTH OF KERATINOUS FIBRES” (priority 2013, dated 2015).

Assays:
hair follicles = test: Components of turpentine oil: number of hair follicles after 4-week topical treatment; assay type: in vivo, mice; conditions: 4 weeks; for Mean number of hair follicles per 1 mm of skin +/- S.D.: 0.1 mL topically twice weekly, 10 mice per group
Source text: (§1) The following commercially available, components of turpentine oil were investigated: • (-) α-pinene; product No 13.127.32 Janssen Chim. 2440 Geel, Belgium • (+) α-pinene; product No 13.126.31 Janssen Chim. 2440, Geel Belgium • (-) β-pinene; product No 15.032.94 Janssen Chim, Geel, Belgium • Turpentine oil crude industrial product was originated from Portugal.
(§2) Young adult, male mice of the N.M.R.I. strain, weighing at the beginning of the experiment +/- 30 g were used, as in previous experiments.
(§3) The protocols used were similar to those described in the previous experiments and study was realized during summer months (July and August). Hair coats were cut along the dorsal surfaces with electric clippers in an area of +/- 6.0 cm^2 two days before treatments. Mice were divided into 4 groups of 10 animals. Each mouse received either • (1) A dose of 0.1 mL of 5% absolute ethanol solution of turpentine oil, • (2) (-) α-pinene, • (3) (+) α-pinene or • (4) (-) β-pinene administered topically on the surface of the shaved skin twice weekly.
(§4) Control groups of the same number and similar age and sex mice were treated the same way but topically applied the solvent alone (absolute ethanol).
(§5) After a 4-week treatment duration all the mice were sacrificed by decapitation, and general autopsies were performed in which skin and main organs specimens were excised and fixed in 10% formalin for histological examination after paraffin embedding and hematoxylin -eosin staining.
(§6) The following evaluating criteria of the observations and results were used: • (1) body and main organ weights, • (2) skin and main organs histological patterns, • (3) semi quantitative evaluation of hair follicles per 1 mm long area in a 5 different areas of the histological sections of the skin of each animal in each group at 100 x microscopic magnification.

[1] = Components of turpentine oil: body and main organ weights, autopsy, histology; assay type: in vivo, mice; set-up: main organs' weights, Liver / main organs' weights, Spleen / main organs' weights, 2 kidneys / main organs' weights, 2 testicles / main organs' weights, Thymus / main organs' weights, Brain: unit not given here; conditions: 5% in ethanol, 4 weeks; for Total body weight in gram / main organs' weights, 2 kidneys / main organs' weights, 2 testicles / main organs' weights, Brain / main organs' weights, Liver / main organs' weights, Spleen / main organs' weights, Thymus: Mean +/- S.D., 10 mice per group
Source text: as §1, §2, §3, §4, §5, §6

Structure (SMILES)	Mean number of hair follicles per 1 mm of skin +/- S.D. (hair follicles; 5% in absolute ethanol)	Mean number of hair follicles per 1 mm of skin +/- S.D. (hair follicles; 5% in absolute ethanol, listed as (+) α- pinene)	activity (hair follicles multiplication) compared with the control group (hair follicles; 5% in ethanol)	Total body weight in gram [1]	main organs' weights, 2 kidneys [1]	main organs' weights, 2 testicles [1]	main organs' weights, Brain [1]	main organs' weights, Liver [1]	main organs' weights, Spleen [1]	main organs' weights, Thymus [1]	Mean number of hair follicles per 1 mm of skin +/- S.D. (hair follicles; 5% in absolute ethanol, listed as (-) α- pinene)	mice with more than 50 hair follicles (hair follicles; 5% in absolute ethanol, group of 10 mice)	local skin alteration (clinical signs or microscopic examination) (hair follicles; 5% in ethanol)	general toxicity [1]	Mean number of hair follicles per 1 mm of skin +/- S.D. (hair follicles; 5% in absolute ethanol, listed as (-) β- pinene)	Mean number of hair follicles per 1 mm of skin +/- S.D. (hair follicles; 5% in absolute ethanol, listed as β-pinene)
CC1=CC[C@@H]2C[C@H]1C2(C)C [(+) α-pinene, (1R)-(+)-α-pinene]	28.9 per 1 mm of skin	28.9 ± 6.4 per 1 mm of skin	only slightly superior to the effects of treatment with the solvent lone	40.1 ± 3.73 gram	840 ± 89.7	432 ± 34.9	658 ± 23.8	2834 ± 283.4	390 ± 36.7	266 ± 18.1						
CC1=CC[C@H]2C[C@@H]1C2(C)C [(-) α-pinene, (1S)-(-)-α-pinene]	52.6 per 1 mm of skin		more than double	39.5 ± .42 gram	814 ± 121.7	440 ± 41.8	674 ± 23	2790 ± 449.9	332 ± 24.9	252 ± 22.8	52.6 ± 7.8 per 1 mm of skin	6 out of 10	did not produce any local skin alteration	neither any sign of a possible general toxicity		
C=C1CC[C@H]2C[C@@H]1C2(C)C [(-) β-pinene, (1S)-(-)-β-pinene]			only slightly superior to the effects of treatment with the solvent lone												28.1 ± 7.6 per 1 mm of skin	28.1 per 1 mm of skin
